In brackets after ≈: the same amount, converted by molar mass. Like-named read-outs stand apart in the source and are kept apart here.
Legend:
[1] = target: T1, S. aureus RNase P (RnpA + rnpB) (Staphylococcus aureus, UniProt P0A0H5); assay: RnpA-dependent RNase P in vitro ptRNA^Tyr processing assay; type: biochemical; details: in vitro ptRNA^Tyr processing
T1 construct: hexahistidine (His6) (N); made in house; host or cells: E. coli BL21 (DE3), plasmid pEXP5-nt
T1 sequence (P0A0H5 1-117): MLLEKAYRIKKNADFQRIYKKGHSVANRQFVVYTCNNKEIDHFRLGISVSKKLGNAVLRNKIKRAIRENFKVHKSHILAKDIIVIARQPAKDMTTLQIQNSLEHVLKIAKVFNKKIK
Experimental: S. aureus RNase P activity assays were performed according to conditions described previously. Briefly, ptRNA^Tyr and rnpB RNA species were first denatured by heating to 95 °C for 5 min then slow cooled to room temperature. RNase P was reconstituted by mixing an equal molar ratio of rnpB and RnpA for 15 min at 37 °C. Precursor tRNA processing inhibition reactions were performed by mixing 1.25 pmol of reconstituted RNase P (RnpA + rnpB) with an equal volume of 2× low salt buffer (50 mM Tris-HCl pH 8.0, 5 mM MgCl2) in the presence of DMSO (negative control) or the indicated compound (≤500 µM) and incubated for 5 min at 37 °C. 5 pmol ptRNA^Tyr was added and the mixture was incubated at 37 °C 15 min. Reactions were stopped by adding 2× RNA loading dye and heating at 65 °C for 10 min. Each sample was electrophoresed in a 7 M urea/8% polyacrylamide gel then stained with ethidium bromide. The Biorad EZ Gel Doc imaging system was used to visualize the RNA and relative abundance of the mature tRNA^Tyr band (% processing) in the negative control or in samples containing the indicated compounds and analyzed using Biorad Image Lab densitometry software. The inhibitory activity of the indicated compounds were calculated as a % inhibition using the following equation: […].
To assess IC50, % RNase P processing inhibition was plotted against compound concentration and a linear best fit equation was generated to calculate the IC50.

S. aureus RnpA = target: T2, S. aureus RnpA (Staphylococcus aureus, UniProt P0A0H5); assay: RnpA-mediated in vitro spa mRNA degradation assay; type: biochemical
T2 construct: hexahistidine (His6) (N); made in house; host or cells: E. coli BL21 (DE3), plasmid pEXP5-nt
T2 sequence (P0A0H5 1-117): T1 sequence (P0A0H5 1-117)
Experimental: RnpA-mediated RNA degradation assays were performed as previously described. Briefly, 1 pmol of spa mRNA was incubated with 5 pmol RnpA at 37 °C for 30 min in reaction buffer (50 mM Tris-HCl pH 8.0, 2 mM NaCl, 2 mM MgCl2) in the absence or presence of the indicated compound (≤500 µM). The inhibitory effects of the test compounds were calculated using Biorad ImageLab densitometry software to measure the signal intensity of the spa band in the negative control (spa alone), positive control (RnpA + spa + DMSO), and experimental samples (RnpA + spa + test compound) separated on a 1.2% formaldehyde-agarose gel. Background signal from the positive control sample sometimes resulted due to incomplete degradation of transcripts. Thus, the signal intensity of the positive control was taken into account when calculating the percent inhibition. The raw signals from the positive (+RnpA) and negative (-RnpA) controls were converted into percentage, by normalizing the positive control (+RnpA) signal to 0% RnpA inhibition and the negative control (-RnpA) to 100% RnpA inhibition. Similarly, the raw signals from the test compounds were reported as percent RnpA inhibition using the following equation: [(experimental−positive control)/(negative control−positive control)] × 100. […] To assess IC50, % RnpA degradation inhibition was plotted against compound concentration; a linear best fit equation was generated and utilized to calculate the IC50.

S. aureus UAMS-1 [2] = assay: Minimum inhibitory concentration (MIC) testing; type: cell-based, Staphylococcus aureus
Experimental: Minimum inhibitory concentration (MIC) testing was performed using to Clinical & Laboratory Standards Institute (CLSI) guidelines. Accordingly, individual wells of a 96-well microtiter plate were inoculated with 10^4 colony forming units (CFU) of S. aureus UAMS-1 containing two-fold increasing concentrations (0 to 256 μg·mL^−1) of the indicated antibiotic or putative RnpA inhibitor compound, and incubated at 37 °C for 16 h in MHB. The MIC was defined as the lowest concentration of compound in which there was no visible bacterial growth in the well.

HepG2 cells = assay: MTT human cell cytotoxicity testing; type: cell-based; details: SAR figures; 4× MIC exposure for 24 h
Experimental: Human HepG2 hepatocytes were seeded in individual wells of a 96-well cell-culture treated microtiter plate at a concentration of 1 × 10^5 cells per well and incubated in Dulbecco’s Modified Eagle Medium (DMEM) supplemented with 10% fetal bovine serum at 37 °C with 5% carbon dioxide overnight. Cells were then treated with DMSO (negative control) or the indicated agent for 24 h. MTT Cell Proliferation Assay Kits were used to assess viability according to the manufacturer’s recommendations (American Type Culture Collection; Manassas, VA, USA).

[3] = test system: norA mRNA in S. aureus UAMS-1 cells; assay: Cellular norA mRNA turnover (qRT-PCR after rifampin arrest); type: cell-based, Staphylococcus aureus; details: 0.5× MIC for 30 min, 5 min post-transcriptional arrest; for norA mRNA degradation: mock 99%
Experimental: S. aureus mRNA half-life determinations were performed as previously described. […] Rifampin (Sigma-Aldrich) was added to the culture at a final concentration of 200 μg·mL^−1 to inhibit de novo transcript synthesis. Half of the culture was immediately removed and combined with an equal volume of ice cold acetone:ethanol (1:1 v/v). The remaining culture was returned to the shaking 37 °C incubator for an additional 5 min and then subsequently combined with an equal volume of ice cold acetone:ethanol (1:1 v/v) and stored at −80 °C until processing, as described below.
For total bacterial RNA isolation, cell suspensions were thawed on ice, centrifuged at 3000 rpm for 10 min at 4 °C, the resulting cell pellets were resuspended in ice-cold TE buffer (10 mM Tris-HCl, pH 8.0, 1 mM EDTA), and transferred into a FastPrep bead beater tube containing 0.1 mm silica spheres (MP Biomedicals; Santa Ana, CA, USA). Mixtures were homogenized at 5 m·s^−1 for 20 s, rested on ice for 5 min, and then homogenized again at 4.5 m·s^−1 in a FastPrep-24 instrument. Cellular debris were collected by centrifugation at 13,000 rpm for 15 min at 4 °C, whereas bacterial RNA was isolated from the supernatant using Qiagen RNeasy Mini Kits and miRNeasy Mini Kits were used to isolate total bacterial RNA, following the manufacturer’s instructions. RNA quantity and quality were measured using a NanoDrop 2000 spectrophotometer (ThermoFisher Scientific). For qRT-PCR, 1 μg of total bacterial RNA was treated with 3 units of DNase I (Ambion; Carlsbad, CA, USA) for 1 h at 37 °C to remove any DNA contaminants. RNA cleanup was performed using the Qiagen RNeasy Mini Kit. Subsequently, the BioRad iScript cDNA Synthesis Kit (Hercules, CA, USA) was used to convert 200 ng of RNA into cDNA, which was amplified using the BioRad iQ SYBR Green Supermix per the manufacturer’s instructions and fluorescence was read on the Biorad CFX 96 Connect machine. Transcript levels were compared to the internal control 16S rRNA (ΔΔCt method), and plotted as a fold change compared to control. The following primer pairs were used in this study for qRT-PCR: norA forward—[…] and norA reverse-[…] CTAAG; -15 ptRNA^Tyr forward-[…] and tRNA^Tyr reverse-TGGTG […]; 16S rRNA forward-[…] and 16S rRNA reverse-[…].

[4] = test system: ptRNA^Tyr levels in S. aureus UAMS-1 cells; assay: Cellular ptRNA^Tyr accumulation (qRT-PCR); type: cell-based, Staphylococcus aureus; details: 1× MIC; 30 min or 1 h
Experimental: ptRNA^Tyr cellular pools were measured, as previously described. […] The culture was immediately removed, combined with an equal volume of ice cold acetone:ethanol (1:1 v/v) and stored at −80 °C until processing, as described below.
For total bacterial RNA isolation, cell suspensions were thawed on ice, centrifuged at 3000 rpm for 10 min at 4 °C, the resulting cell pellets were resuspended in ice-cold TE buffer (10 mM Tris-HCl, pH 8.0, 1 mM EDTA), and transferred into a FastPrep bead beater tube containing 0.1 mm silica spheres (MP Biomedicals; Santa Ana, CA, USA). Mixtures were homogenized at 5 m·s^−1 for 20 s, rested on ice for 5 min, and then homogenized again at 4.5 m·s^−1 in a FastPrep-24 instrument. Cellular debris were collected by centrifugation at 13,000 rpm for 15 min at 4 °C, whereas bacterial RNA was isolated from the supernatant using Qiagen RNeasy Mini Kits and miRNeasy Mini Kits were used to isolate total bacterial RNA, following the manufacturer’s instructions. RNA quantity and quality were measured using a NanoDrop 2000 spectrophotometer (ThermoFisher Scientific). […] Subsequently, the BioRad iScript cDNA Synthesis Kit (Hercules, CA, USA) was used to convert 200 ng of RNA into cDNA, which was amplified using the BioRad iQ SYBR Green Supermix per the manufacturer’s instructions and fluorescence was read on the Biorad CFX 96 Connect machine. […]

[5] = test system: S. aureus RN4220 pML100::rnpA-KD; assay: Cellular RnpA depletion hypersusceptibility growth curve; type: cell-based, Staphylococcus aureus; details: […] MIC JC2 or 0.5× MIC RNPA2000
Experimental: 100 μL of each culture was transferred to a 96 well flat bottom plate in duplicate and growth monitored by OD600 reading every 30 min over 8 h at 37 °C. Hypersusceptibility growth curves were averaged from two biological replicates in technical duplicate.

S. aureus UAMS-1 [6] = assay: Galleria mellonella model of S. aureus infection; type: in vivo; details: 10^4 CFU UAMS-1, single dose 100 mg·kg^−1 1 h post-infection, 16 h; DMSO 60%
Experimental: (§1) An overnight culture of S. aureus strain UAMS-1 was used to inoculate (1:100 dilution) 25 mL of fresh MH medium and growth at 37 °C on a rotary shaker at 225 rpm to exponential phase (~1 × 10^8 CFU mL^−1). Cultures were pelleted by centrifugation, washed with phosphate buffered saline (PBS), and re-suspended at ~1 × 10^7 CFU·mL^−1 in fresh PBS. G. mellonella larvae weighing 150–250 mg were inoculated with 5 µL of S. aureus into the last left proleg using a 10 µL Hamilton syringe. About 1 h after inoculation, one group of worms was treated with 2 µL DMSO as infected negative control; one group was treated with 2 µL JC2 compound at 100 mg/kg dose; another group was treated with 2 µL vancomycin at 100 mg/kg dose as standard-of-care comparison. Treatments were administered in the same manner as infection, except that each injection was in the next left proleg moving towards the head of the worm. […] In addition to the mock or compound treatment of infected larvae, a group of non-infected worm injected with DMSO or corresponding compounds were used to monitor the impact of physical trauma as well as observe toxicity associated with compound treatment.

Galleria mellonella = Galleria mellonella single tolerated dose (uninfected worms); type: in vivo; details: single dose 100 mg·kg^−1, 16 h
Experimental: as §1

[7] = Staphylococcus aureus, UAMS1, 16 h, Table S1, mupirocin synergy screening initial hits, read-out: MIC
[8] = Staphylococcus aureus, UAMS1, SAR figures, S. aureus UAMS-1, read-out: MIC

Compound | IC50 ([1]; read-out: Processing IC50) [µM] | IC50 (S. aureus RnpA; read-out: Degradation IC50) [µM] | MIC (S. aureus UAMS-1 [2]; [7]) [µg/mL] | MIC (S. aureus UAMS-1 [2]; [8]) [µg/mL] | MTT = % HepG2 cell survival (HepG2 cells) [%] | norA mRNA degradation [3] | further results
CC1CCN(C(=O)Nc2cc(Cl)cc(Cl)c2)CC1 [JC1] | 210 | 110 | 1 | 1 (≈ 3.48 µM) | 63 | did not reduce cellular norA mRNA degradation | MIC (S. aureus UAMS-1 [2]; S. aureus UAMS-1, 16 h in MHB, listed as 9044791): 1 µg/mL (≈ 3.48 µM)
CCC1CCCCN1C(=O)Nc1cc(Cl)cc(Cl)c1 (stereo not shown) [JC3] | 175 | 500 | 1 | 1 (≈ 3.32 µM) | 57.9 | did not reduce cellular norA mRNA degradation | effect on RnpA mRNA degradation activity (in words) (S. aureus RnpA): no appreciable effect; MIC (S. aureus UAMS-1 [2]; S. aureus UAMS-1, 16 h in MHB, listed as 9044688): 1 µg/mL (≈ 3.32 µM)
CCC1CCCCN1C(=O)Nc1cccc(Cl)c1 (stereo not shown) [JC3b] | ≤ 500 | ≤ 500 | – | 32 (≈ 120 µM) | 82.8 | did not reduce cellular norA mRNA degradation | IC50 ([1]; SAR figures, read-out: pIC50 = processing IC50 (converted)): 500 µM; IC50 (S. aureus RnpA; SAR figures, read-out: dIC50 = degradation IC50): 350 µM
CC(C)c1ccc(OCC(=O)NNC(=S)NC(=O)c2ccco2)cc1 [RNPA2000, reference compound] | – | – | – | – | – | – | MIC (S. aureus UAMS-1 [2]; S. aureus UAMS-1, 16 h in MHB): 16 µg/mL (≈ 44.3 µM); cellular accumulation of precursor tRNA^Tyr in comparison to mock treated cells [4]: 2.31 fold; reduction of cellular norA mRNA degradation [3]: approximately 54%; growth of RnpA-depleted cells (RnpA-KD) versus vector cells [5]: hypersusceptibility
CN[C@H](CC(C)C)C(=O)N[C@H]1C(=O)N[C@@H](CC(N)=O)C(=O)N[C@H]2C(=O)N[C@H]3C(=O)N[C@H](C(=O)N[C@H](C(=O)O)c4cc(O)cc(O)c4-c4cc3ccc4O)[C@H](O)c3ccc(c(Cl)c3)Oc3cc2cc(c3O[C@@H]2O[C@H](CO)[C@@H](O)[C@H](O)[C@H]2O[C@H]2C[C@](C)(N)[C@H](O)[C@H](C)O2)Oc2ccc(cc2Cl)[C@H]1O [vancomycin, reference compound] | – | – | – | – | – | – | mortality rate of S. aureus infected worms (S. aureus UAMS-1 [6]): 40%; mortality rate of uninfected worms (Galleria mellonella): 10%
